The structures appear in SMILES notation.

Test in all cases: normalised viability (% of control), CellTiter-Blue; higher = more viable cells (about 100 = DMSO control)
Holding throughout (conditions): incubation time: 72 h

For test [1], the system named is CAL-148. As to the method: (§1)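 DSRT, CellTiter-Blue viability, 72 h incubation. Signal is normalised to DMSO and benzethonium chloride controls. Value is the normalised response at dose 6.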
The subject of test [2] is HDQ-P1. The protocol: as §1
Test [3] relates to CAL-51. As to the method:
as §1

In test [4] the test system is DU-4475. As to the method:
as §1

The subject of test [5] is MDA-MB-453. As to the method:
as §1

The test system of test [6] is CAL-85-1. The protocol: as §1

With `Cc1ccc(C(=O)N(CCCN)[C@@H](c2oc3cc(Cl)ccc3c(=O)c2Cc2ccccc2)C(C)C)cc1` (30 nM), the normalised viability in test [1] is 18.3%; in test [2], 74%; in test [3], 26.8%; in test [4] it was 24.3%; in test [5], 24.8%; in test [6] it was 33.3%.
For the compound `NC(=O)Nc1cc(-c2cccc(F)c2)sc1C(=O)N[C@H]1CCCNC1` [AZD 7762] (30 nM), the normalised viability came out at 93.7% in test [1]; 93.9% in test [2]; 103% in test [3]; 99.8% in test [4]; 110% in test [5]; 99.5% in test [6].
`CO[C@H]1/C=C\C=C(/C)C(=O)NC2=CC(=O)C(NCCN(C)C)=C(C[C@@H](C)C[C@H](OC)[C@H](O)[C@@H](C)/C=C(\C)[C@@H]1OC(N)=O)C2=O` [Alvespimycin] (30 nM): the normalised viability in test [1] came to 48%; in test [2] it was 44.2%; in test [3], 63.5%; in test [4], 1.87%; in test [5] it was 7.17%; in test [6] it was 62.8%.
As to `CCC1(c2ccc(N)cc2)CCC(=O)NC1=O` (stereo not drawn) [Aminoglutethimide] (300 nM), the normalised viability was found to be 104% in test [1]; 72.9% in test [2]; 84.8% in test [3]; 93.4% in test [4]; 89.6% in test [5]; 92.9% in test [6].
In the case of `NCC(=O)CCC(=O)O` [Aminolevulinic acid] (300 nM), the normalised viability in test [1] was determined as 113%; in test [2] it was 90%; in test [3], 102%; in test [4], 91.8%; in test [5], 117%; in test [6], 91.4%.
Take `CCN(CCCOc1ccc2c(Nc3cc(CC(=O)Nc4cccc(F)c4)[nH]n3)ncnc2c1)CCOP(=O)(O)O` [Barasertib] (30 nM): the normalised viability in test [1] came out at 23.7%; in test [2] it was 46%; in test [3], 72%; in test [4], 85.7%; in test [5], 67.6%; in test [6], 77.7%.
As for `Cn1c(CCCC(=O)O)nc2cc(N(CCCl)CCCl)ccc21` [Bendamustine] (300 nM), the normalised viability came to 114% in test [1]; 61% in test [2]; 107% in test [3]; 108% in test [4]; 96.8% in test [5]; 94.6% in test [6].
Consider `C=C(c1ccc(C(=O)O)cc1)c1cc2c(cc1C)C(C)(C)CCC2(C)C` [Bexarotene] (300 nM), for which the normalised viability in test [1] is 92.8%; in test [2] it was 54.5%; in test [3], 92.8%; in test [4], 116%; in test [5], 71.4%; in test [6] it was 89.8%.
Take `CC(=O)Nc1ccc(C(=O)Nc2ccccc2N)cc1` [CI-994] (30 nM): the normalised viability in test [1] turned out to be 92.8%; in test [2], 100%; in test [3] it was 98.3%; in test [4] it was 85.6%; in test [5] it was 102%; in test [6] it was 104%.
For the compound `COc1cc2nccc(Oc3ccc(NC(=O)C4(C(=O)Nc5ccc(F)cc5)CC4)cc3)c2cc1OC` [Cabozantinib] (30 nM), the normalised viability in test [1] came out at 111%; in test [2], 62.5%; in test [3], 102%; in test [4], 96.1%; in test [5], 96.5%; in test [6], 85.5%.
Consider `N.N.[Cl][Pt][Cl]` [Cisplatin] (300 nM), for which the normalised viability is 104% in test [1]; 78.9% in test [2]; 108% in test [3]; 93.6% in test [4]; 107% in test [5]; 99.5% in test [6].
Consider `C[C@@H](Oc1cc(-c2cnn(C3CCNCC3)c2)cnc1N)c1c(Cl)ccc(F)c1Cl` [Crizotinib] (300 nM), for which the normalised viability came to 101% in test [1]; 36.5% in test [2]; 99.7% in test [3]; 112% in test [4]; 71.1% in test [5]; 92% in test [6].
Turning to `CN(C)/N=N/c1[nH]cnc1C(N)=O` [Dacarbazine] (300 nM), the normalised viability in test [1] was determined as 84.3%; in test [2] it was 88.8%; in test [3], 89.4%; in test [4], 92.7%; in test [5], 89%; in test [6], 93.4%.

Values taken from the supplement of paper PMC4862054.
